Each structure is given as a SMILES string. Where two headings read alike, the source gives them in different places.

Assay [1] relates to passive cutaneous anaphylaxis (PCA) reaction in rats. Put plainly: Inhibition of PCA reaction in rats. The class given is in vivo, Wistar rats. The settings on record: Rattus norvegicus, po; for inhibition in vivo at 3 mg/kg / inhibition in vivo at 10 mg/kg: read-out: Inhibition of PCA in rat. On the procedure: (§1) Antiserum was prepared according to the method described in J. Immunol., 106, 1002 (1971). The titer (or highest effective dilution which gave a mean 48 hours PCA response of 5 mm in diameter in a rat) of the antiserum used was 1:200.
Wistar rats were passively sensitized by intracutaneous injection of 0.05 ml antiserum diluted 75 times with physiological saline at two sheared sites of dorsal skin. After 48 hours, 0.5ml/animal of 1% Evans blue-physiological saline containing 2mg ovalbumin was administered into caudal vein to elicit the reaction. After 30 minutes, rats were sacrificed by decapitative bleeding and the dorsal skin was flayed. Dye stuff exuded at the reaction site was extracted according to the method described in Microbiol. Immunol., 22, 89 (1978). Briefly, two circular pieces of sensitized areas and one circular piece of unsensitized area (as the control) were punched at 1.8 cm diameter. The disks were placed in test tubes and treated overnight with 1 ml 1N-KOH at 37° C. Then 9ml 0.6N-H3 PO4 /acetone (5/13) was added and the mixture was thoroughly stirred and centrifuged (3000 rpm, 10 minutes). The supernatant was assayed for absorption at 620 nm. The amount of dye stuff was calculated from the standard curve previously prepared with known amounts of Evance blue. The conditions of sensitization and the amount of antigen were based on Nippon Yakurigaku Zasshi (Japanese Journal of Pharmacology),80, 261 (1982).
Test drugs and Oxatomide as a positive control were administered orally before 1 hour of elicitation through a gastric tube at 1 ml/200g body weight. In the test, groups of 6 to 7 animals and groups of 8 to 9 animals were used for test drugs and control, respectively.

Assay [2] deals with experimental asthma in rats. Put plainly: Inhibition of experimental asthma in rats. Type of assay: in vivo, Wistar rats. The settings on record: Rattus norvegicus, po; for inhibition in vivo at 1 mg/kg: other dosage/kg: 1 mg; for inhibition in vivo at 0.1 mg/kg: other dosage/kg: 0.1 mg; for inhibition in vivo at 0.3 mg/kg: other dosage/kg: 0.3 mg. On the procedure: as §1
Wistar rats were passively sensitized by injection into caudal vein of 2.0ml/animal antiserum. After 24 hours, anaphylactic airway contraction caused by administration of antigen was measured by a modified Konzett and Roessler method. Briefly, the animal was fixed at dorsal position under urethane (1.5 g/kg, i.p.) anesthetization and connected with a respirator (Harvard Model 683, respiratory volume: 3-5 ml/respiration; respiratory rate: 72/minute) via an incised tracheal cannula. […] Oxatomide was administered two hours before the test, which is the optimal conditions according to Nippon Yakurigaku Zasshi (Japanese Journal of Pharmacology), 80, 261 (1982), and the other test drugs were orally administered at a rate of 0.2 ml/100 g body weight one hour before the test using a gastric tube. At the end of measurement, the trachea was blocked with a Kocher clamp and the measured values were expressed in percent taking the value at blockage as the maximum contraction (100%).

Where [3] appears, read: read-out: Inhibition of Experimental Asthma in rat.
Where [4] appears, read: 10 mg/kg, read-out: Inhibition of Experimental Asthma in rat.

Turning to `O=c1cc(CN2CCC(c3c[nH]c4ccccc34)CC2)c2ccccc2[nH]1` [III-1, 4-[[4-(1H-indol-3-yl)-l-piperidinyl]methyl]-2(1H)-quinolinone], in assay [1], the inhibition in vivo at 3 mg/kg amounted to 58.8% and the inhibition in vivo at 10 mg/kg came out at 73.1%. Moreover, in assay [2] (setting [3]), the inhibition in vivo at 10 mg/kg came to 14.6% and the inhibition in vivo at 30 mg/kg is 14.3%.

As to `O=c1cc(CCCN2CCC(c3c[nH]c4ccccc34)CC2)c2ccccc2[nH]1` [III-3, 4-[3-[4-(1H-indol-3-yl)-1-piperidinyl]propyl]-2(1H)-quinolinone], the inhibition in vivo at 10 mg/kg in assay [1] (10 mg/kg) is 69.1%; in assay [2] (setting [4]) it was 85%. Also, the results for the inhibition in vivo at 1 mg/kg in assay [1] (other dosage/kg: 1 mg) and in assay [2] were 21.3% and 25.4%, respectively. Moreover, the inhibition in vivo at 3 mg/kg came to 25.8% in assay [1] (other dosage/kg: 3 mg) and 88.7% in assay [2] (other dosage/kg: 3 mg). For the same molecule, in assay [1] (other dosage/kg: 30 mg), the inhibition in vivo at 30 mg/kg was found to be 96.1%.

In the case of `O=c1cc(CCCCN2CCC(c3c[nH]c4ccccc34)CC2)c2ccccc2[nH]1` [III-4, 4-[4-[4-(1H-indol-3-yl)-1-piperidinyl]butyl]-2(1H)-quinolinone], the inhibition in vivo at 10 mg/kg in assay [1] (10 mg/kg) came out at 12.8%; in assay [2] (setting [4]), 28.7%.

Take `O=c1cc(CCCCCN2CCC(c3c[nH]c4ccccc34)CC2)c2ccccc2[nH]1` [III-5, 4-[5-[4-(1H-indol-3-yl)-1-piperidinyl]pentyl]-2(1H)-quinolinone]: the inhibition in vivo at 10 mg/kg in assay [1] (10 mg/kg) came out at 66.5%; in assay [2] (setting [4]), 8.87%.

`O=c1cc(CN2CCN(C(c3ccccc3)c3ccccc3)CC2)c2ccccc2[nH]1` [III-6, 4-[[4-(diphenylmethyl)-1-piperazinyl]methyl]-2(1H)-quinolinone]: the inhibition in vivo at 10 mg/kg in assay [1] (10 mg/kg) came to 9.7%; in assay [2] (setting [4]) it was 57.2%.

Turning to `O=c1cc(CCN2CCN(C(c3ccccc3)c3ccccc3)CC2)c2ccccc2[nH]1` [III-7, 4-[2-[4-(diphenylmethyl)-1-piperazinyl]ethyl]-2(1H)-quinolinone], the inhibition in vivo at 10 mg/kg came to 57.8% in assay [1] (10 mg/kg) and 63.6% in assay [2] (setting [4]).

As for `O=c1cc(CCCN2CCN(C(c3ccccc3)c3ccccc3)CC2)c2ccccc2[nH]1` [III-8, 4-[3-[4-(diphenylmethyl)-1-piperazinyl]propyl]-2(1H)-quinolinone], the inhibition in vivo at 10 mg/kg in assay [1] (10 mg/kg) came to 73.9%; in assay [2] (setting [4]) it was 17.1%.

`O=c1cc(CCN2CCN(C(c3ccccc3)c3ccc(Cl)cc3)CC2)c2ccccc2[nH]1` (centres unmarked) [III-9]: the inhibition in vivo at 10 mg/kg in assay [1] (10 mg/kg) is 8.9%; in assay [2] (setting [4]), 34.6%.

As to `O=c1cc(CCN2CCC(OC(c3ccccc3)c3ccccc3)CC2)c2ccccc2[nH]1` [III-11, 4-[2-[4-(diphenylmethoxy)-1-piperidinyl]ethyl]-2(1H)-quinolinone], the inhibition in vivo at 10 mg/kg in assay [1] (10 mg/kg) amounted to 63.6%; in assay [2] (setting [4]), 35.6%.

As for `O=c1cc(CCCN2CCC(OC(c3ccccc3)c3ccccc3)CC2)c2ccccc2[nH]1` [III-12, 4-[3-[4-(diphenylmethoxy)-1-piperidinyl]propyl]-2(1H)-quinolinone], the inhibition in vivo at 10 mg/kg stood at 73.6% in assay [1] (10 mg/kg) and 12.1% in assay [2] (setting [4]).

As for `O=C1Cc2ccccc2C(=C2CCN(Cc3cc(=O)[nH]c4ccccc34)CC2)c2ccsc21` [III-13, 4,9-dihydro-4-[1-[(1,2-dihydro-2-oxo-4-quinolyl)methyl]-4-piperidinylidene]-10H-benzo[4, 5]cyclohepta[1,2-b]thiophen-10-one], the inhibition in vivo at 10 mg/kg in assay [1] (10 mg/kg) was 24.2%; in assay [2] (setting [4]) it was 42.9%.

With `O=C1Cc2ccccc2C(=C2CCN(CCc3cc(=O)[nH]c4ccccc34)CC2)c2ccsc21` [III-14, 4,9-dihydro-4-[1-[2-(1,2-dihydro-2-oxo-4-quinolyl)ethyl]-4-piperidinylidene]-10H-benzo[4, 5]cyclohepta[1,2-b]thiophen-10-one], the figures for the inhibition in vivo at 10 mg/kg in assay [1] (10 mg/kg) and in assay [2] (setting [4]) were 23.1% and 44.8%, respectively.

For the molecule `O=C1Cc2ccccc2C(=C2CCN(CCCc3cc(=O)[nH]c4ccccc34)CC2)c2ccsc21` [III-15, 4,9-dihydro-4-[1-[3-(1,2-dihydro-2-oxo-4-quinolyl)propyl]-4-piperidinylidene]-10H-benzo[4, 5]cyclohepta[1,2-b]thiophen-10-one], the inhibition in vivo at 10 mg/kg in assay [1] (10 mg/kg) stood at 49.9%; in assay [2] (setting [4]), 37.5%.

As for `Cn1c(=O)cc(CN2CCC(c3c[nH]c4ccccc34)CC2)c2ccccc21` [III-16, 4-[[4-(1H-indol-3-yl)-l-piperidinyl]methyl]-1-methyl-2(1H)-quinolinone], the inhibition in vivo at 10 mg/kg in assay [1] amounted to 45.6%; in assay [2] (setting [3]) it was 2.57%.

`Cn1c(=O)cc(CCN2CCC(c3c[nH]c4ccccc34)CC2)c2ccccc21` [III-17, 4-[2-[4-(1H-indol-3-yl)-1-piperidinyl]ethyl]-1-methyl-2(1H)-quinolinone]: the inhibition in vivo at 10 mg/kg in assay [1] (10 mg/kg) came to 42.5%. The inhibition in vivo at 10 mg/kg in assay [2] (setting [4]) was determined as 86.5%. Moreover, in assay [2], the inhibition in vivo at 0.1 mg/kg stood at 96.2%, the inhibition in vivo at 0.3 mg/kg came to 80.9% and the inhibition in vivo at 1 mg/kg was found to be 88.1%.

On to `O=c1cc(CCN2CCC(c3c[nH]c4ccccc34)CC2)c2ccc(Br)cc2[nH]1` [III-18, 7-bromo-4-[2-[4-(1H-indol-3-yl)-1-piperidinyl]ethyl]-2(1H)-quinolinone], for which the inhibition in vivo at 10 mg/kg in assay [1] (10 mg/kg) was 45.2%; in assay [2] (setting [4]), 84.2%. Moreover, the inhibition in vivo at 1 mg/kg in assay [2] was 62.6%.

Regarding `O=c1cc(CCN2CCC(c3c[nH]c4ccccc34)CC2)c2cc([N+](=O)[O-])ccc2[nH]1` [III-19, 4-[2-[4-(1H-indol-3-yl)-1-piperidinyl]ethyl]-6-nitro-2(1H)-quinolinone], the inhibition in vivo at 10 mg/kg in assay [1] (10 mg/kg) worked out at 20.3%; in assay [2] (setting [4]), 88.5%.

With `Nc1ccc2[nH]c(=O)cc(CCN3CCC(c4c[nH]c5ccccc45)CC3)c2c1` [III-20, 6-amino-4-[2-[4-(1H-indol-3-yl)-1-piperidinyl]ethyl]-2(1H)-quinolinone], the inhibition in vivo at 10 mg/kg in assay [1] (10 mg/kg) came to 18.5%; in assay [2] (setting [4]), 89.2%.

For `Cc1ccc2[nH]c(=O)cc(CCN3CCC(c4c[nH]c5ccccc45)CC3)c2c1` [III-23, 4-[2-[4-(1H-indol-3-yl)-1-piperidinyl]ethyl]-6-methyl-2(1H)-quinolinone], the inhibition in vivo at 10 mg/kg in assay [1] (10 mg/kg) stood at 62%. Moreover, the inhibition in vivo at 10 mg/kg in assay [2] (setting [4]) turned out to be 95.5%. In addition, in assay [2], the inhibition in vivo at 0.1 mg/kg was found to be 48.5%, the inhibition in vivo at 0.3 mg/kg came to 84% and the inhibition in vivo at 1 mg/kg amounted to 95%.

In the case of `Cc1cccc2c(CCN3CCC(c4c[nH]c5ccccc45)CC3)cc(=O)[nH]c12` [III-24, 4-[2-[4-(1H-indol-3-yl)-1-piperidinyl]ethyl]-8-methyl-2-(1H)-quinolinone], the inhibition in vivo at 10 mg/kg in assay [1] (10 mg/kg) came to 102%; in assay [2] (setting [4]), 73.8%. Besides, the inhibition in vivo at 1 mg/kg in assay [2] was determined as 95.7%.

On to `Cc1ccc2c(CCN3CCC(c4c[nH]c5ccccc45)CC3)cc(=O)[nH]c2c1` [III-25, 4-[2-[4-(1H-indol-3-yl)-1-piperidinyl]ethyl]-7-methyl-2-(1H)-quinolinone], for which the inhibition in vivo at 10 mg/kg in assay [1] (10 mg/kg) was determined as 29.4%; in assay [2] (setting [4]) it was 68.6%.

For the molecule `Cc1cc(C)c2c(CCN3CCC(c4c[nH]c5ccccc45)CC3)cc(=O)[nH]c2c1` [III-27, 5,7-dimethyl-4-[2-[4-(1H-indol-3-yl)-1-piperidinyl]ethyl]-2(1H)-quinolinone], the inhibition in vivo at 10 mg/kg in assay [1] (10 mg/kg) was determined as 70.9%; in assay [2] (setting [4]), 65.8%.

For the origin of these results see US5457099A, “Carbostyril derivatives and antiallergic agent” (Sawai Pharmaceutical Co., Ltd., priority 1992, dated 1995).
